Measured values published in patent publication US20050004111A1, “Selective MMP-13 inhibitors” (AVENTIS PHARMA DEUTSCHLAND GMBH, priority 2003, published 2005).

Each compound was assayed against T1, prolyl 4-hydroxylase (Gallus gallus, UniProt P16924) (assay: Prolyl hydroxylase inhibition (method of Majamaa, version of Kaule and Guenzler)). Conditions: enzyme from 14-day-old chick embryos; concentrations of from 0.1 μM to 1 mM.
T1 construct: from tissue; host or cells: 14-day-old chick embryos (homogenate)
T1 sequence (P16924 1-516): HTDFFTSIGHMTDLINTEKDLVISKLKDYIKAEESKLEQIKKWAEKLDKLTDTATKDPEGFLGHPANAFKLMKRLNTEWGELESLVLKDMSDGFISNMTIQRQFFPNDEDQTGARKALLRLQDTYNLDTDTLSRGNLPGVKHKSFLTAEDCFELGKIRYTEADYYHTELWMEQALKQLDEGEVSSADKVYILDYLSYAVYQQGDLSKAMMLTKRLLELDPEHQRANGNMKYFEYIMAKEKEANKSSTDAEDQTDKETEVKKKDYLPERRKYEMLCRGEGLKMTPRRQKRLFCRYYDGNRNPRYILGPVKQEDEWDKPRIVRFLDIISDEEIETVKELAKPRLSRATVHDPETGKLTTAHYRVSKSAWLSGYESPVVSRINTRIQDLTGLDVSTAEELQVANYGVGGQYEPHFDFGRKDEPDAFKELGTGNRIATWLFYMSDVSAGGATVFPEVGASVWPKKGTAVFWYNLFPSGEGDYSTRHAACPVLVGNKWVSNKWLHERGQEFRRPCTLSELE
T1 sequence (P09102 23-515 partner): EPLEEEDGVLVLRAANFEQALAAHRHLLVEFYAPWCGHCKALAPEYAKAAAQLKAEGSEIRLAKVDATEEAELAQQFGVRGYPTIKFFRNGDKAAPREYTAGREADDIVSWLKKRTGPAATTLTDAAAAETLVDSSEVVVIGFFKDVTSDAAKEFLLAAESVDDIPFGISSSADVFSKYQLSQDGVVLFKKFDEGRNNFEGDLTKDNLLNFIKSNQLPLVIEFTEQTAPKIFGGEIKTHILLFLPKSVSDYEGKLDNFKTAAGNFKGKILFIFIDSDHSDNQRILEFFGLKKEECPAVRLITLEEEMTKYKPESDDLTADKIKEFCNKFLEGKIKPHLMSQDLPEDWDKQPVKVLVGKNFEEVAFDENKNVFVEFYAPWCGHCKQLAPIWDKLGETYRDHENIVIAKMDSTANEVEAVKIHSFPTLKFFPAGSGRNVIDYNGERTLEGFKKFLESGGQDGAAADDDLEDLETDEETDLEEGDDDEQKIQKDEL
Assay type: biochemical
Protocol: Determining prolyl hydroxylase inhibition by the method of Majamaa Eur. J. Biochem. 138 (1984) 239-245 using the version of Kaule and guenzler Analytical Biochemistry 184 (1990) 291-297.
0.03 μg of prolyl 4-hydroxylase, which was prepared, by the method of Kedersa, Collagen Relat. Res. 1 (1981) 345-353, from homogenized 14-day-old chick embryos by ammonium sulfate precipitation and affinity chromatography on poly-L-proline-coupled Sepharose 4B and subsequent DEAE cellulose chromatography, was incubated, at 37° C. for one hour, in 0.05 ml of an 0.04 M tris-HCl solution (pH=7.5) containing 0.05 mM FeSO4, 0.1 mM 2-oxo-[5-C-14]glutarate (100,000 dpm), 20 μg (0.4 mg/ml) of (Pro-Pro-Gly)10 (Protein Research Foundation, Minoh, Osaka, Japan), 1 mM ascorbic acid, 0.4 mg of catalase/ml, 0.5 mM dithiothreitol and 2 mg of bovine serum albumin/ml, as well as the concentration of the inhibitor to be measured (the comparison experiment was carried out without any inhibitor). After that, 25 μl of a 20 mM succinate and 2-oxaglutarate solution, and also 25 μl of a 0.16 M 2,4-DNPH solution containing 30% HClO4, were added. After the mixture had been incubated at room temperature for a further 30 minutes, it was centrifuged at 3000 g for 5 minutes. The radioactivity of 100 μl of the supernatant was determined by liquid scintillation. Production of the [1-C-14] succinate was given in dpm. Unless otherwise indicated, all the chemicals and reagents were obtained from Sigma, Sigma D-82024 Taufkirchen.
The compounds tested in Table 3 were used at concentrations of from 0.1 μM to 1 mM. Where it was possible, the IC50 value was determined by graphic extrapolarization of the individual results. This value denotes the concentration of active inhibitors that led to 50% inhibition of the enzyme.
In the case of `Cc1cc(CNC(=O)c2cc(C(=O)NCc3cccs3)ncn2)ccc1F` [Example 7], the “Prolyl hydroxylase IC50” value is reported as “No inhibition”.
In the case of `O=C(NCc1ccncc1)c1cc(C(=O)NCc2ccc(F)c(Cl)c2)ncn1` [Example 14], the “Prolyl hydroxylase IC50” value is reported as “No inhibition”.
For `COc1cccc(CNC(=O)c2cc(C(=O)NCc3ccncc3)ncn2)c1` [Example 22], the “Prolyl hydroxylase IC50” value was “No inhibition”.
In the case of `COc1cccc(CNC(=O)c2cc(C(=O)NCc3cccc(OCCN(C)C)c3)ncn2)c1` [Example 69], the “Prolyl hydroxylase IC50” value is reported as “No inhibition”.
`COc1cccc(CNC(=O)c2cc(C(=O)NCc3ccc(OCCN(C)C)cc3)ncn2)c1` [Example 70] was tested, and the “Prolyl hydroxylase IC50” value was “No inhibition”.
In the case of `COc1cccc(CNC(=O)c2cc(C(=O)NCc3ccc(OCCCN(C)C)cc3)ncn2)c1` [Example 71], the “Prolyl hydroxylase IC50” value is reported as “No inhibition”.
For `O=C(NCc1ccc(OCCN2CCOCC2)cc1)c1cc(C(=O)NCc2ccc(F)c(Cl)c2)ncn1` [Example 72], the “Prolyl hydroxylase IC50” value was “No inhibition”.
In the case of `O=C(NCc1ccc(F)c(Cl)c1)c1cc(C(=O)NCc2cccs2)ncn1` [Example 83], the “Prolyl hydroxylase IC50” value is reported as “No inhibition”.
In the case of `Cc1ccc(CNC(=O)c2cc(C(=O)NCc3ccc(F)c(C)c3)ncn2)o1` [Example 84], the “Prolyl hydroxylase IC50” value is reported as “No inhibition”.
With `O=C(O)c1cc(C(=O)O)ncn1` [Pyrimidine-4,6-dicarboxylic acid, reference compound] the IC50 was 1200 nM.

These compounds were tested against T2, catalytic domain of human collagenase 3 (MMP-13) (Homo sapiens, UniProt P45452) (assay: Enzyme activity of the catalytic domain of human collagenase 3 (MMP-13), fluorogenic substrate). Conditions: determined graphically from % inhibition, read-out: IC50 MMP13.
T2 construct: Determining the enzyme activity of the catalytic domain of human collagenase 3 (MMP-13); purchased INVITEK, Berlin 30 100 803
Assay type: biochemical
Protocol: Determining the enzyme activity of the catalytic domain of human collagenase 3 (MMP-13).
Activating the proenzyme:
2 parts by volume of proenzyme are incubated with 1 part by volume of APMA solution at 37° C. for 1.5 hours. The APMA solution is prepared from a 10 mmol/l solution of p-aminophenylmercuric acetate in […] by diluting with 3 parts by volume of tris/HCl buffer, pH 7.5 (see below). The pH is adjusted to between 7.0 and 7.5 by adding 1 mmol/I HCl. After the enzyme has been activated, it is diluted to a concentration of 1.67 μg/ml using the tris/HCl buffer.
In order to measure the enzyme activity, 10 μl of enzyme solution are incubated for 15 minutes with 10 μl of a 3% (v/v) buffered solution of dimethyl sulfoxide (reaction 1). In order to measure the enzyme inhibitor activity, 10 μl of enzyme solution are incubated with 10 μl of a 3% (v/v) buffered solution of dimethyl sulfoxide containing the enzyme inhibitor (reaction 2).
In the case of both reaction 1 and reaction 2, the enzyme reaction is monitored by fluorescence spectroscopy (328 nm (extinction)/393 nm (emission)) after adding 10 μl of a 3% (v/v) aqueous solution of dimethyl sulfoxide containing 0.75 mmol of the substrate/l.
The enzyme activity is depicted as increase in extinction/minute.
The effect of the inhibitor is calculated as a percentage inhibition using the following formula: % inhibition=100−[(increase in extinction/minute in reaction 2)/(increase in extinction/minute in reaction 1)×100].
The IC50, i.e., the inhibitor concentration that is required for inhibiting the enzyme activity by 50%, is determined graphically by plotting the percentage inhibitions at different inhibitor concentrations.
The buffer solution contains 0.05% Brij (Sigma, Deisenhofen, Germany) and 0.1 mol of tris/HCl/l, 0.1 mol of NaCl/l and 0.01 mol of CaCl2/l (pH=7.5). The enzyme solution contains 1.67 μg of the enzyme domain/ml. The substrate solution contains 0.75 mmol/l of the fluorogenic substrate (7-methoxycoumarin4-yl)acetyl-Pro-Leu-Gly-Leu-3-(2′,4′-dinitrophenyl)-L-2,3-diaminopropionyl-Ala-Arg-NH2 (Bachem, Heidelberg, Germany).
`Cc1cc(CNC(=O)c2cc(C(=O)NCc3ccc(OCC(=O)OC(C)(C)C)cc3)ncn2)ccc1F` [Example 1, tert-Butyl [4-({[6-(4-fluoro-3-methylbenzylcarbamoyl)pyrimidine-4-carbonyl]amino}methyl)phenoxy]acetate] showed an IC50 of 12 nM.
With `Cc1cc(CNC(=O)c2cc(C(=O)NCc3ccc(OCC(=O)O)cc3)ncn2)ccc1F` [Example 2, [4-({[6-(4-Fluoro-3-methylbenzylcarbamoyl)pyrimidine-4-carbonyl]-amino}methyl)phenoxy]acetic acid] the IC50 was 7 nM.
`COc1cccc(CNC(=O)c2cc(C(=O)NCc3ccc(C)s3)ncn2)c1` [Example 4] was tested, and the IC50 was 24 nM.
Compound `COc1cc(CNC(=O)c2cc(C(=O)NCc3ccc(F)c(Br)c3)ncn2)ccn1` [Example 11] has an IC50 of 30 nM.
In the case of `COc1cc(CNC(=O)c2cc(C(=O)NCc3ccc(F)c(Cl)c3)ncn2)ccn1` [Example 20], the IC50 is reported as 50 nM.
`O=C(NCCc1cccs1)c1cc(C(=O)NCc2ccc(F)c(Cl)c2)ncn1` [Example 28] showed an IC50 of 100 nM.
With `Cc1cc(CNC(=O)c2cc(C(=O)NCc3sccc3C)ncn2)ccc1F` [Example 35] the IC50 was 200 nM.
`COc1cccc(CNC(=O)c2cc(C(=O)NCc3nccs3)ncn2)c1` [Example 44] was tested, and the IC50 was 500 nM.
